Laboratory results published in patent US20260034130A1 (priority 2022, published 2026).

Columns and labels:
Type in all cases: in vivo, human
[1] = system: patients with acute ischemic stroke or high-risk TIA; experiment: AXIOMATIC-SSP clinical (symptomatic) ischemic stroke and undetermined stroke events, all randomized participants
Protocol: The primary efficacy endpoint was the composite of incident ischemic stroke during the treatment period or new covert brain infarction detected by the comparison of 90-day and baseline MRIs. All images were read independently by 2 blinded neuroradiologists, and disagreements were resolved by consensus. […] Clinically overt strokes were determined by site investigators following standardized definitions. Briefly, to qualify as an outcome event, a clinical diagnosis of stroke required a sustained increase in the NIHSS score of ≥3 points that was not explained by other factors, such as infection, or was confirmed by imaging as a new infarct. Covert brain infarction is defined as small ischemic cerebral lesions that are detected on Day 90 MRI in the absence of a symptomatic ischemic stroke event. […]

[2] = system: patients with acute ischemic stroke or high-risk TIA; experiment: AXIOMATIC-SSP vascular territory of incident infarcts at Day 90 compared with baseline
Description: At baseline, recent ischemic lesions were detected and quantified using the DWI sequence. Incident infarcts (defined as new imaging lesions compared to the baseline MRI which may be associated with a symptomatic ischemic stroke or be covert in nature) were detected at Day 90 on the FLAIR sequence and categorized as DWI positive or DWI negative based on whether they could also be detected on the DWI sequence. DWI positive lesions at Day 90 were likely associated with infarctions occurring late during the follow-up period (approximately from Day 30 to Day 90) while DWI negative lesions were more likely related to earlier infarctions (approximately occurring by Day 30). The vascular territory of incident infarcts was also assessed at Day 90.

[3] = system: patients with acute ischemic stroke or high-risk TIA; experiment: AXIOMATIC-SSP mRS at the time of first recurrent stroke; details: for mRS Change from Baseline Mean / mRS Change from Baseline Median / mRS Value Mean / mRS Value Median: first recurrent stroke
Description: (§1) National Institutes of Health Stroke Scale (NIHSS), Modified Rankin Scale (mRS), Montreal Cognitive Assessment (MoCA), and Digit Symbol Substitution Test (subtest of WAIS-IV) were collected at baseline (at randomization for NIHSS), on Days 21 and 90, and at the time of a new stroke event. MoCA and DSST (subset of WAIS-IV) were read by a third-party central laboratory blinded to treatment.
(§2) Descriptive statistics and corresponding change from baseline (where applicable) assessed by the National Institutes of Health Stroke Score (NIHSS), modified Rankin Scale (mRS), Montreal Cognitive Assessment (MoCA), and Digit Symbol Substitution Test (subtest of WAIS-IV) were summarized by treatment group.

[4] = system: patients with acute ischemic stroke or high-risk TIA; experiment: AXIOMATIC-SSP NIHSS at the time of first recurrent stroke; details: for NIHSS Change from Baseline Mean / NIHSS Change from Baseline Median / NIHSS Value Mean / NIHSS Value Median: first recurrent stroke
Description: as §1, §2

[5] = system: intrinsic coagulation pathway; experiment: AXIOMATIC-SSP pharmacodynamics: activated partial thromboplastin time (aPTT) and percent change from baseline; details: for aPTT Percent Change from Baseline Mean / aPTT Percent Change from Baseline Median / aPTT Value Mean / aPTT Value Median: 50 mg BID

## C[C@@H]1CCC[C@H](n2cnc(-c3cc(Cl)ccc3-n3cc(Cl)nn3)cc2=O)c2cc(ccn2)-c2c(cnn2C(F)F)NC1=O [milvexian, (5R,9S)-9-(4-(5-chloro-2-(4-chloro-1H-1,2,3-triazol-1-yl)phenyl)-6-oxopyrimidin-1(6H)-yl)-21-(difluoromethyl)-5-methyl-21H-3-aza-1(4,2)-pyridina-2(5,4)-pyrazolacyclonaphan-4-one]
[1]; 25 mg BID, N = 318
  Subjects With Hemorragic Stroke n: 0
  Subjects With Hemorragic Stroke, Incidence Rate (n/N %): (0) %
  Subjects With Undetermined Stroke, Incidence Rate (n/N %): (0) %
  Symptomatic Stroke Events: Subjects With Event, Incidence Rate (n/N %): (3.8) %
[1]; 25 mg QD, N = 328
  Subjects With Hemorragic Stroke n: 0
  Subjects With Hemorragic Stroke, Incidence Rate (n/N %): (0) %
  Subjects With Ischemic Stroke n: 15
  Subjects With Undetermined Stroke, Incidence Rate (n/N %): (0) %
  Symptomatic Stroke Events: Subjects With Event n: 15
  Symptomatic Stroke Events: Subjects With Event, Incidence Rate (n/N %): (4.6) %
[1]; 25 mg twice daily, 95% CI 0.36-1.30
  HR for preventing clinical ischemic strokes vs placebo: 0.69
[1]; 50 mg BID, N = 328
  Subjects With Hemorragic Stroke n: 0
  Subjects With Hemorragic Stroke, Incidence Rate (n/N %): (0) %
  Subjects With Undetermined Stroke, Incidence Rate (n/N %): (0) %
  Symptomatic Stroke Events: Subjects With Event, Incidence Rate (n/N %): (4.0) %
[1]; 100 mg BID, N = 310
  Subjects With Hemorragic Stroke n: 0
  Subjects With Hemorragic Stroke, Incidence Rate (n/N %): (0) %
  Subjects With Undetermined Stroke, Incidence Rate (n/N %): (0) %
  Symptomatic Stroke Events: Subjects With Event, Incidence Rate (n/N %): (3.5) %
[1]; 200 mg BID, N = 351
  Subjects With Hemorragic Stroke n: 0
  Subjects With Hemorragic Stroke, Incidence Rate (n/N %): (0) %
  Subjects With Undetermined Stroke, Incidence Rate (n/N %): (0) %
  Symptomatic Stroke Events: Subjects With Event, Incidence Rate (n/N %): (7.7) %
[1]; pooled doses of milvexian
  time point for apparent onset of the clinical benefit vs placebo (Kaplan-Meier, time to ischemic stroke): about 10 days
[2]; ACA, 25 BID, N = 285
  Incident infarcts at Day 90 by vascular territory: subjects (percent, in parentheses): (1.1)
[2]; ACA, 25 QD, N = 305
  Incident infarcts at Day 90 by vascular territory: subjects (percent, in parentheses): (0.3)
[2]; ACA, 50 BID, N = 306
  Incident infarcts at Day 90 by vascular territory: subjects (percent, in parentheses): (1.3)
[2]; AChA, 50 BID, N = 306
  Incident infarcts at Day 90 by vascular territory: subjects (percent, in parentheses): (0.3)
[2]; AChA, 100 BID, N = 275
  Incident infarcts at Day 90 by vascular territory: subjects (percent, in parentheses): (0.4)
[2]; AChA, 200 BID, N = 311
  Incident infarcts at Day 90 by vascular territory: subjects (percent, in parentheses): (0.4)
[2]; BASILAR - MIDBRAIN, 25 QD, N = 305
  Incident infarcts at Day 90 by vascular territory: subjects (percent, in parentheses): (0.3)
[2]; BASILAR - PONS, 50 BID, N = 306
  Incident infarcts at Day 90 by vascular territory: subjects (percent, in parentheses): (0.3)
[2]; BASILAR - THALAMUS, 25 BID, N = 285
  Incident infarcts at Day 90 by vascular territory: subjects (percent, in parentheses): (0.7)
[2]; BASILAR - THALAMUS, 25 QD, N = 305
  Incident infarcts at Day 90 by vascular territory: subjects (percent, in parentheses): (0.3)
[2]; BASILAR - THALAMUS, 50 BID, N = 306
  Incident infarcts at Day 90 by vascular territory: subjects (percent, in parentheses): (0.3)
[2]; LENTICULO-STRIATE ARTERIES, 25 BID, N = 285
  Incident infarcts at Day 90 by vascular territory: subjects (percent, in parentheses): (2.1)
[2]; LENTICULO-STRIATE ARTERIES, 25 QD, N = 305
  Incident infarcts at Day 90 by vascular territory: subjects (percent, in parentheses): (2.0)
[2]; LENTICULO-STRIATE ARTERIES, 50 BID, N = 306
  Incident infarcts at Day 90 by vascular territory: subjects (percent, in parentheses): (1.3)
[2]; LENTICULO-STRIATE ARTERIES, 100 BID, N = 275
  Incident infarcts at Day 90 by vascular territory: subjects (percent, in parentheses): (1.5)
[2]; LENTICULO-STRIATE ARTERIES, 200 BID, N = 311
  Incident infarcts at Day 90 by vascular territory: subjects (percent, in parentheses): (1.5)
[2]; MCA, 25 BID, N = 285
  Incident infarcts at Day 90 by vascular territory: subjects (percent, in parentheses): (4.9)
[2]; MCA, 25 QD, N = 305
  Incident infarcts at Day 90 by vascular territory: subjects (percent, in parentheses): (4.9)
[2]; MCA, 50 BID, N = 306
  Incident infarcts at Day 90 by vascular territory: subjects (percent, in parentheses): (4.2)
[2]; MCA, 100 BID, N = 275
  Incident infarcts at Day 90 by vascular territory: subjects (percent, in parentheses): (4.7)
[2]; MCA, 200 BID, N = 311
  Incident infarcts at Day 90 by vascular territory: subjects (percent, in parentheses): (4.7)
[2]; PCA, 25 BID, N = 285
  Incident infarcts at Day 90 by vascular territory: subjects (percent, in parentheses): (1.4)
[2]; PCA, 25 QD, N = 305
  Incident infarcts at Day 90 by vascular territory: subjects (percent, in parentheses): (2.6)
[2]; PCA, 50 BID, N = 306
  Incident infarcts at Day 90 by vascular territory: subjects (percent, in parentheses): (2.0)
[2]; PCA, 100 BID, N = 275
  Incident infarcts at Day 90 by vascular territory: subjects (percent, in parentheses): (2.5)
[2]; PCA, 200 BID, N = 311
  Incident infarcts at Day 90 by vascular territory: subjects (percent, in parentheses): (2.5)
[2]; PICA, 25 BID, N = 285
  Incident infarcts at Day 90 by vascular territory: subjects (percent, in parentheses): (1.1)
[2]; PICA, 25 QD, N = 305
  Incident infarcts at Day 90 by vascular territory: subjects (percent, in parentheses): (0.3)
[2]; PICA, 100 BID, N = 275
  Incident infarcts at Day 90 by vascular territory: subjects (percent, in parentheses): (1.1)
[2]; PICA, 200 BID, N = 311
  Incident infarcts at Day 90 by vascular territory: subjects (percent, in parentheses): (1.1)
[2]; SCA, 25 BID, N = 285
  Incident infarcts at Day 90 by vascular territory: subjects (percent, in parentheses): (0.7)
[2]; SCA, 25 QD, N = 305
  Incident infarcts at Day 90 by vascular territory: subjects (percent, in parentheses): (0.7)
[2]; SCA, 100 BID, N = 275
  Incident infarcts at Day 90 by vascular territory: subjects (percent, in parentheses): (0.4)
[2]; SCA, 200 BID, N = 311
  Incident infarcts at Day 90 by vascular territory: subjects (percent, in parentheses): (0.4)
[3]; 25 BID, N 10
  mRS Change from Baseline Mean: 2.1
  mRS Change from Baseline Median: 2.0
  mRS Value Mean: 2.6
  mRS Value Median: 3.0
[3]; 25 QD, N 13
  mRS Change from Baseline Mean: 1.9
  mRS Change from Baseline Median: 2.0
  mRS Value Mean: 2.7
  mRS Value Median: 3.0
[3]; 50 BID, N 11
  mRS Change from Baseline Mean: 1.7
  mRS Change from Baseline Median: 1.0
  mRS Value Mean: 2.3
  mRS Value Median: 2.0
[3]; 100 BID, N 8
  mRS Change from Baseline Mean: 2.4
  mRS Change from Baseline Median: 2.5
  mRS Value Mean: 2.9
  mRS Value Median: 3.0
[3]; 200 BID, N 19
  mRS Change from Baseline Mean: 1.4
  mRS Change from Baseline Median: 1.0
  mRS Value Mean: 1.8
  mRS Value Median: 1.0
[3]; milvexian arms
  mRS score at the time of a new stroke event compared with placebo: numerically lower
[4]; 25 BID, N 11
  NIHSS Change from Baseline Mean: 2.6
  NIHSS Change from Baseline Median: 3.0
  NIHSS Value Mean: 5.4
  NIHSS Value Median: 5.0
[4]; 25 QD, N 14
  NIHSS Change from Baseline Mean: 2.6
  NIHSS Change from Baseline Median: 2.0
  NIHSS Value Mean: 4.6
  NIHSS Value Median: 3.5
[4]; 50 BID, N 11
  NIHSS Change from Baseline Mean: 1.6
  NIHSS Change from Baseline Median: 1.0
  NIHSS Value Mean: 4.6
  NIHSS Value Median: 3.0
[4]; 100 BID, N 10
  NIHSS Change from Baseline Mean: 5.2
  NIHSS Change from Baseline Median: 2.5
  NIHSS Value Mean: 7.1
  NIHSS Value Median: 6.5
[4]; 200 BID, N 20
  NIHSS Change from Baseline Mean: 2.8
  NIHSS Change from Baseline Median: 1.0
  NIHSS Value Mean: 4.4
  NIHSS Value Median: 2.5
[4]; milvexian arms
  NIHSS score at the time of a new stroke event compared with placebo: numerically lower
[5]; DAY 1 24 h, N 269
  aPTT Percent Change from Baseline Mean: 85.17%
  aPTT Percent Change from Baseline Median: 81.89%
  aPTT Value Mean: 49.38 s
  aPTT Value Median: 48.60 s
[5]; DAY 21 anytime, N 268
  aPTT Percent Change from Baseline Mean: 115.62%
  aPTT Percent Change from Baseline Median: 112.6%
  aPTT Value Mean: 57.27 s
  aPTT Value Median: 55.10 s
[5]; DAY 90 anytime, N 241
  aPTT Percent Change from Baseline Mean: 97.32%
  aPTT Percent Change from Baseline Median: 101.18%
  aPTT Value Mean: 52.00 s
  aPTT Value Median: 52.60 s
[5]; milvexian treated groups
  change in aPTT from baseline: Dose-dependent increases
